Laboratory results as given in PubChem BioAssay (NCI).
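Five compound concentrations were applied to cells in 96-well plates for 48 hours; endpoints were derived by simple linear interpolation of the resulting dose-response curve. Here, GI50 denotes the concentration required for 50% inhibition of growth. At the TGI there is no net growth.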

Columns and labels:
Assay in all cases: inhibition of tumour cell growth, NCI panel, 48 h
[1] = system: UACC-62 melanoma
[2] = system: IGROV1 ovarian
[3] = system: OVCAR-3 ovarian
[4] = system: SF-268 CNS
[5] = system: U251 CNS
[6] = system: MOLT-4 leukemia
[7] = system: SNB-19 CNS
[8] = system: 786-0 renal
[9] = system: A549 NSCLC
[10] = system: NCI-H522 lung

| SMILES | GI50 [1] | TGI [1] | GI50 [2] | TGI [2] | GI50 [3] | TGI [3] | GI50 [4] | TGI [4] | GI50 [5] | TGI [5] | GI50 [6] | TGI [6] | GI50 [7] | TGI [7] | GI50 [8] | TGI [8] | GI50 [9] | TGI [9] | GI50 [10] | TGI [10] |
| --- | --- | --- | --- | --- | --- | --- | --- | --- | --- | --- | --- | --- | --- | --- | --- | --- | --- | --- | --- | --- |
| CC1C(C)N(C(=O)CCl)c2ccccc2N1C(=O)CCl (stereo unspecified) | 0.624 µM | 2.1 µM | 0.203 µM | 0.435 µM | 0.194 µM | 0.428 µM | 0.582 µM | 2.11 µM | 0.755 µM | 2.14 µM | 0.243 µM | 0.81 µM | 2.16 µM | 5.4 µM | 0.937 µM | 3.02 µM | 2.25 µM | 6.11 µM | 0.162 µM | 0.347 µM |
| CC(=O)NC(C)(C)C1CCC(C)=C(c2ccccc2)C1 (stereo unspecified) |  | > 100 µM |  | > 100 µM |  | > 100 µM |  | > 100 µM |  | > 100 µM |  | > 100 µM |  | > 100 µM |  | > 100 µM |  | > 100 µM |  | > 100 µM |
| Cc1cccc(C2SCc3nc4ccccc4n32)c1 (stereo unspecified) |  | > 100 µM |  | > 100 µM |  | 39.1 µM |  | > 100 µM |  | 47.2 µM |  | > 100 µM |  |  |  | 96.2 µM |  | > 100 µM |  | 60.7 µM |
| CCc1ccc(CCC(=O)Nc2ncc(Cc3ccc(Cl)cc3)s2)o1 | 0.491 µM | > 100 µM | 0.549 µM | > 100 µM | 0.248 µM | 0.682 µM | 1.68 µM | > 100 µM | 0.371 µM | > 100 µM | 0.53 µM | > 100 µM | 0.463 µM | > 100 µM | 0.582 µM | > 100 µM | 0.496 µM | > 100 µM | 0.302 µM | 53.9 µM |
| CCOC(=O)Oc1cc2c(c(OC)c1OC)-c1ccc(OC)c(=O)cc1C(NC(C)=O)CC2 (stereo unspecified) |  | 25.2 µM |  | > 69.6 µM |  | 0.135 µM |  | 73.5 µM |  | 8.56 µM |  | 22.9 µM |  | 92.4 µM |  | > 100 µM |  | > 100 µM |  | 0.0271 µM |
| CC1=C2[C@@H](CC1)[C@]1(C)O[C@@](C(C)C)(C[C@H]1OC(=O)CO)[C@H]2OC(=O)C1CC1c1ccccc1 (stereo partly specified) | 10.9 µM | 25.6 µM | 19.1 µM | 46.7 µM | 13 µM | 26.4 µM | 13 µM | 27.9 µM | 14.8 µM | 28.6 µM | 9.73 µM | 28.8 µM | 16.7 µM | 34.6 µM | 15.1 µM | 32.2 µM | 11.9 µM | 25.9 µM | 12.7 µM | 28 µM |
| COC(=O)C1=C(O)[C@H](C(=O)OC)C2(O)C(C(=O)OC)[C@H](c3ccc(OC(=O)C(C)c4ccc(CC(C)C)cc4)cc3)C[C@@H]1[C@@H]2C(=O)OC (stereo partly specified) | 9.41 µM | 22.4 µM | 15 µM | 41.3 µM | > 50 µM | > 50 µM | > 50 µM | > 50 µM | 11.6 µM | 30.2 µM |  |  | 40 µM | > 50 µM | 20.4 µM | > 50 µM | 26.8 µM | > 50 µM | 14.3 µM | > 50 µM |
| Cc1ccccc1NC(=O)c1sc2nc(C)c(C(=O)/C=C/c3ccccc3)cc2c1N | 0.9 µM | 2.04 µM | 0.953 µM | 2.08 µM | 1 µM | 2.12 µM | 1.2 µM | 3.58 µM | 0.951 µM | 1.99 µM | 1.57 µM | > 50 µM | 1.16 µM | 3.58 µM | 0.82 µM | 1.77 µM | 1.58 µM | 9.7 µM | 1.15 µM | 3.42 µM |
| COc1ccc2c(c1)[nH]c(=O)c1c3cccc(F)c3cn21 | 0.0379 µM | > 100 µM | 0.0397 µM |  | 0.0295 µM | 0.0774 µM | 0.0749 µM | 44.7 µM | 0.0472 µM | 14.8 µM | 0.0425 µM | 14.6 µM | 0.218 µM | > 69.6 µM | 0.0665 µM | > 86.1 µM | 0.0667 µM | > 100 µM | 0.0756 µM | > 35.5 µM |
| CCOC(=O)C(=O)CC1=Nc2ccccc2SC(c2cccc(C)c2)C1 (stereo unspecified) |  | 31.9 µM |  | 35.7 µM |  | 34 µM |  | 32.2 µM |  | 31 µM |  | 47.9 µM |  | 34.6 µM |  | 32.4 µM |  | 50.8 µM |  | 32.8 µM |
| COC(=O)N/N=C(\C)c1c(O)cc(C)oc1=O |  | > 100 µM |  | > 100 µM |  |  |  | > 100 µM |  | > 100 µM |  | > 100 µM |  | > 100 µM |  | > 100 µM |  | > 100 µM |  |  |
| COc1cc(Nc2ncc(-c3ccccc3)o2)cc(OC)c1 | > 25 µM | > 25 µM | > 25 µM | > 25 µM | > 25 µM | > 25 µM | > 25 µM | > 25 µM | > 25 µM | > 25 µM | > 18.7 µM | > 25 µM | > 25 µM | > 25 µM | > 25 µM | > 25 µM | > 25 µM | > 25 µM | > 25 µM | > 25 µM |
| CCOP(=O)(OCC)C1CCCOC1=O (stereo unspecified) |  | > 100 µM |  | > 100 µM |  | > 100 µM |  | > 100 µM |  | > 100 µM |  | > 100 µM |  | > 100 µM |  | > 100 µM |  | > 100 µM |  |  |
| COc1ccc(C/C(=C(\C)c2ccc(OCCN3CCCC3)cc2)c2ccc(OCCN3CCCC3)cc2)cc1 | 1.78 µM | 3.38 µM | 1.87 µM | 3.97 µM | 2 µM | 3.87 µM | 1.97 µM | 4.19 µM | 1.8 µM | 3.32 µM | 1.94 µM | 4.51 µM | 2.12 µM | 4.75 µM | 1.63 µM | 3.24 µM | 1.82 µM | 3.84 µM | 1.86 µM | 3.53 µM |
| C[C@]12CC[C@H]3[C@@H](CC=C4C[C@@H](N5CCCC5)CC[C@@]43C)[C@@H]1C/C(=C\c1cccc(OCCN3CCOCC3)c1)[C@@H]2O | 17.6 µM | 33.2 µM | 12.8 µM | > 100 µM | 2.3 µM | 7.55 µM | 13.3 µM | > 100 µM | 2.95 µM | > 100 µM |  |  | 4.41 µM | > 100 µM | 1.64 µM | 3.62 µM | 3.48 µM | 45.4 µM | 8.21 µM | 29.7 µM |
